Legend:
Malassezia furfur = assay: Antimicrobial efficacy in analogy to challenge test NF EN ISO11930, Malassezia furfur; type: cell-based; details: for Δ (change of microorganism count t = 0 h to t = 24): 24 h, 0.5 wt.-% of each active; for Δ (change of microorganism count t = 0 h to t = 24) / Malassezia furfur colony count: 22° C., initial count 3300 cfu/ml; for Malassezia furfur colony count: 24 h after contamination, physiological serum 0.85 wt.-% NaCl, 0.5 wt.-% of each active (0.5 wt.-% Erythrulose corresponds to 0.4 wt.-% of active)
Protocol: (§1) The wells were contaminated with Malassezia furfur, Propionibacterium acnes, respectively Aspergillus brasiliensis to obtain the initial contamination as outlined in table 1, 2 and 3. […] The counting of the (remaining) population was carried out 24 h after contamination.

Aspergillus brasiliensis = assay: Antimicrobial efficacy in analogy to challenge test NF EN ISO11930, Aspergillus brasiliensis; type: cell-based; details: 24 h, 22° C.; for Aspergillus brasiliensis colony count: initial count 10000 cfu/ml
Protocol: as §1
(The term “Log reduction” is a well-known mathematical term used to show the relative number of cells, germs, microbes, etc., reduced in or on something, e.g. a 2 log reduction means the number of microbes is 100 times smaller and a 3 log reduction means the number of microbes is 1000 times smaller).

[1] = 0.4 wt.-% p-Hydroxyacetophenone
[2] = 0.5 wt.-% Erythrulose (corresponds to 0.4 wt.-% of active)

| SMILES | Δ (change of microorganism count t = 0 h to t = 24) (Malassezia furfur) | Malassezia furfur colony count (Malassezia furfur) [cfu/ml] | Log step reduction (Aspergillus brasiliensis; [1]) | Aspergillus brasiliensis colony count (Aspergillus brasiliensis; [1]) [cfu/ml] | anti-fungal effect against Malassezia furfur (in words) (Malassezia furfur; concentration of 0.5%) | Log step reduction (Aspergillus brasiliensis; [2]) | Aspergillus brasiliensis colony count (Aspergillus brasiliensis; [2]) [cfu/ml] |
| --- | --- | --- | --- | --- | --- | --- | --- |
| CC(=O)c1ccc(O)cc1 [p-Hydroxyacetophenone, 1-(4-hydroxyphenyl)-ethanone] | −83% | 550 | 2 | 100 |  |  |  |
| O=C(CO)[C@@H](O)CO [Erythrulose, L-(+)-Erythrulose] | ±0% | 3300 |  |  | does not exert any anti-fungal effect | 2 | 100 |

— patent publication US11364208B2, “Topical compositions” (DSM IP ASSETS B.V., priority 2017, dated 2022)
